Ends that are not written are not given here.
B1: HDAC6 ZnF-UBP 1109-1215 (protein)
chain: PLPWCPHLVAVCPIPAAGLDVTQPCGDCGTIQENWVCLSCYQVYCGRYINGHMLQHHGNSGHPLVLSYIDLSAWCYYCQAYVHHQALLDVKNIAHQNKFGEDMPHPH

Molecular target: T1, ubiquitin C-terminal pentapeptide RLRGG (Homo sapiens, also: FITC label, site not given here)
T1 chain: RLRGG
Assay: fluorescence polarization

Molecule | Kd [µM]
B1 | 0.68

molecular target: T2, HDAC6 ZnF-UBP binding domain (ZnF-UBP^WT peptide, HDAC6^1109-1215) (Homo sapiens, UniProt Q9UBN7); assay: fluorescence polarization displacement of FITC-RLRGG
T2 construct: methods b47 print 1190-1215, apparently a misprint), expressed in E. coli BL21 Star (DE3), HisTrap purified
T2 sequence (Q9UBN7 1109-1215): B1 chain
Excerpt: fluorescence polarization displacement of FITC-RLRGG on HDAC6 ZnF-UBP binding domain (ZnF-UBP^WT peptide, HDAC6^1109-1215)

Molecule | IC50 [µM]
Cn1c(CCC(=O)O)nc2ccccc2c1=O [1a, quinazolinone 1a] | 2.7 ± 0.3
Cn1c(CCC(=O)O)nc2ccc(Cl)cc2c1=O [1b, Quinazolinone 1b] | 1.9 ± 0.2
COc1ccc2nc(CCC(=O)O)n(C)c(=O)c2c1 [1c, Quinazolinone 1c] | 2.1 ± 0.5
Cc1ccc2nc(CCC(=O)O)n(C)c(=O)c2c1 [1d, Quinazolinone 1 d] | 13.6 ± 1
Cn1c(CCC(=O)O)nc2cc(Cl)ccc2c1=O [1e, Quinazolinone 1e] | 1.9 ± 0.1
Cn1c(CCC(=O)O)nc2cc([N+](=O)[O-])ccc2c1=O [1f, Quinazolinone 1 f] | 2.3 ± 0.2
Cc1ccc2c(=O)n(C)c(CCC(=O)O)nc2c1 [1g, Quinazolinone 1 g] | 2.1 ± 0.1

Source: paper PMC12000391, “Selective molecular inhibition of the HDAC6 ZnF-UBP binding domain impairs multiple myeloma cell function” (Cell Death Discovery, 2025)
